± gives the standard deviation of the averaged measurements.
Assays:
Assay in all cases: normalised growth rate inhibition (GR value) relative to DMSO control (GR (1 = untreated growth, 0 = cytostasis, <0 = cytotoxic)); higher = less growth inhibition
Conditions in all cases: 72 h
BT20 = system: BT20
Outline: (§1)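 Six breast cell lines in 384-well plates were exposed to drugs at 0.04–10 µM for 72 h, starting 24 h after seeding. Viable cells were counted in Columbus from Operetta images, and counts were compared with same-plate DMSO wells and a day-0 plate. Normalised growth rate inhibition from those counts was averaged across technical plate replicates.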

HS578T = system: HS578T
Outline: as §1

MCF10A = system: MCF10A
Outline: as §1

MCF7 = system: MCF7
Outline: as §1

MDAMB231 = system: MDAMB231
Outline: as §1

SKBR3 = system: SKBR3
Outline: as §1

| Compound | normalised growth rate inhibition (BT20; 0.04 µM) | normalised growth rate inhibition (BT20; 0.12 µM) | normalised growth rate inhibition (BT20; 0.37 µM) | normalised growth rate inhibition (BT20; 1.11 µM) | normalised growth rate inhibition (BT20; 3.33 µM) | normalised growth rate inhibition (BT20; 10 µM) | normalised growth rate inhibition (HS578T; 0.04 µM) | normalised growth rate inhibition (HS578T; 0.12 µM) | normalised growth rate inhibition (HS578T; 0.37 µM) | normalised growth rate inhibition (HS578T; 1.11 µM) | normalised growth rate inhibition (HS578T; 3.33 µM) | normalised growth rate inhibition (HS578T; 10 µM) | normalised growth rate inhibition (MCF10A; 0.04 µM) | normalised growth rate inhibition (MCF10A; 0.12 µM) | normalised growth rate inhibition (MCF10A; 0.37 µM) | normalised growth rate inhibition (MCF10A; 1.11 µM) | normalised growth rate inhibition (MCF10A; 3.33 µM) | normalised growth rate inhibition (MCF10A; 10 µM) | normalised growth rate inhibition (MCF7; 0.04 µM) | normalised growth rate inhibition (MCF7; 0.12 µM) | normalised growth rate inhibition (MCF7; 0.37 µM) | normalised growth rate inhibition (MCF7; 1.11 µM) | normalised growth rate inhibition (MCF7; 3.33 µM) | normalised growth rate inhibition (MCF7; 10 µM) | normalised growth rate inhibition (MDAMB231; 0.04 µM) | normalised growth rate inhibition (MDAMB231; 0.12 µM) | normalised growth rate inhibition (MDAMB231; 0.37 µM) | normalised growth rate inhibition (MDAMB231; 1.11 µM) | normalised growth rate inhibition (MDAMB231; 3.33 µM) | normalised growth rate inhibition (MDAMB231; 10 µM) | normalised growth rate inhibition (SKBR3; 0.04 µM) | normalised growth rate inhibition (SKBR3; 0.12 µM) | normalised growth rate inhibition (SKBR3; 0.37 µM) | normalised growth rate inhibition (SKBR3; 1.11 µM) | normalised growth rate inhibition (SKBR3; 3.33 µM) | normalised growth rate inhibition (SKBR3; 10 µM) |
| --- | --- | --- | --- | --- | --- | --- | --- | --- | --- | --- | --- | --- | --- | --- | --- | --- | --- | --- | --- | --- | --- | --- | --- | --- | --- | --- | --- | --- | --- | --- | --- | --- | --- | --- | --- | --- |
| O=C(NC1CCNCC1)c1n[nH]cc1NC(=O)c1c(Cl)cccc1Cl [AT-7519] | 0.891 ± 0.088 | 0.695 ± 0.31 | 0.207 ± 0.43 | -0.207 ± 0.12 | -0.361 ± 0.21 | -0.422 ± 0.18 | 0.899 ± 0.1 | 0.564 ± 0.38 | -0.102 ± 0.11 | -0.14 ± 0.099 | -0.242 ± 0.12 | -0.295 ± 0.11 | 0.969 ± 0.028 | 0.88 ± 0.071 | 0.222 ± 0.39 | -0.156 ± 0.23 | -0.256 ± 0.28 | -0.296 ± 0.25 | 0.69 ± 0.41 | 0.0423 ± 0.33 | -0.267 ± 0.063 | -0.302 ± 0.099 | -0.33 ± 0.14 | -0.404 ± 0.13 | 0.732 ± 0.19 | 0.291 ± 0.38 | -0.171 ± 0.22 | -0.291 ± 0.22 | -0.355 ± 0.2 | -0.388 ± 0.19 | 0.717 ± 0.24 | 0.14 ± 0.11 | -0.104 ± 0.074 | -0.284 ± 0.15 | -0.41 ± 0.18 | -0.523 ± 0.16 |
| C[C@@H](N)c1ccc(C(=O)Nc2ccnc3[nH]ccc23)cc1 | 0.994 ± 0.068 | 1.01 ± 0.098 | 0.962 ± 0.084 | 0.895 ± 0.073 | 0.802 ± 0.09 | 0.296 ± 0.17 | 0.884 ± 0.015 | 0.821 ± 0.059 | 0.802 ± 0.03 | 0.757 ± 0.041 | 0.626 ± 0.054 | 0.0283 ± 0.12 | 0.9685 ± 0.0076 | 0.877 ± 0.069 | 0.888 ± 0.038 | 0.864 ± 0.047 | 0.805 ± 0.089 | 0.336 ± 0.18 | 1.06 ± 0.049 | 1.04 ± 0.043 | 1 ± 0.039 | 0.905 ± 0.11 | 0.63 ± 0.19 | -0.243 ± 0.13 | 0.873 ± 0.12 | 0.849 ± 0.1 | 0.777 ± 0.11 | 0.703 ± 0.086 | 0.586 ± 0.062 | -0.303 ± 0.14 | 0.839 ± 0.19 | 0.836 ± 0.19 | 0.782 ± 0.14 | 0.667 ± 0.18 | 0.522 ± 0.18 | -0.122 ± 0.18 |
| CCc1cc(Nc2nccc(-c3c(-c4ccc(OC)c(C(=O)Nc5c(F)cccc5F)c4)nc4ccccn34)n2)c(OC)cc1N1CCC(N2CCN(S(C)(=O)=O)CC2)CC1 | 0.821 ± 0.056 | 0.902 ± 0.036 | 0.916 ± 0.017 | 0.937 ± 0.042 | 0.961 ± 0.029 | 0.999 ± 0.043 | 0.96 ± 0.025 | 0.958 ± 0.013 | 0.965 ± 0.017 | 0.931 ± 0.024 | 0.951 ± 0.032 | 0.955 ± 0.023 | 0.719 ± 0.2 | 0.699 ± 0.19 | 0.656 ± 0.22 | 0.608 ± 0.23 | 0.621 ± 0.23 | 0.634 ± 0.18 | 0.473 ± 0.16 | 0.418 ± 0.17 | 0.404 ± 0.092 | 0.363 ± 0.081 | 0.358 ± 0.069 | 0.319 ± 0.091 | 0.813 ± 0.093 | 0.864 ± 0.045 | 0.893 ± 0.027 | 0.9 ± 0.011 | 0.971 ± 0.02 | 0.939 ± 0.024 | 0.701 ± 0.094 | 0.841 ± 0.045 | 0.98 ± 0.02 | 0.986 ± 0.057 | 1.04 ± 0.023 | 1.05 ± 0.027 |
| Oc1cccc(-c2nc(N3CCOCC3)c3oc4ncccc4c3n2)c1 [PI-103] | 0.949 ± 0.084 | 0.723 ± 0.26 | 0.357 ± 0.32 | 0.0983 ± 0.17 | -0.0552 ± 0.017 | -0.115 ± 0.034 | 0.676 ± 0.047 | 0.397 ± 0.075 | 0.249 ± 0.13 | 0.174 ± 0.16 | 0.148 ± 0.17 | 0.0951 ± 0.13 | 0.96 ± 0.066 | 0.76 ± 0.22 | 0.427 ± 0.24 | 0.196 ± 0.067 | 0.125 ± 0.032 | 0.0826 ± 0.033 | 0.71 ± 0.14 | 0.379 ± 0.16 | 0.0687 ± 0.081 | -0.0473 ± 0.051 | -0.0779 ± 0.063 | -0.153 ± 0.1 | 0.772 ± 0.075 | 0.637 ± 0.1 | 0.42 ± 0.25 | 0.371 ± 0.12 | 0.291 ± 0.18 | 0.0948 ± 0.18 | 0.9 ± 0.045 | 0.579 ± 0.1 | 0.221 ± 0.052 | -0.00817 ± 0.15 | -0.0811 ± 0.2 | -0.137 ± 0.17 |
| CCCS(=O)(=O)Nc1ccc(F)c(C(=O)c2c[nH]c3ncc(Cl)cc23)c1F [PLX-4720] | 1.01 ± 0.032 | 0.988 ± 0.027 | 0.959 ± 0.051 | 0.882 ± 0.16 | 0.685 ± 0.1 | 0.409 ± 0.05 | 1.03 ± 0.033 | 1.09 ± 0.044 | 1.12 ± 0.079 | 1.12 ± 0.11 | 1.04 ± 0.086 | 0.781 ± 0.092 | 0.998 ± 0.019 | 0.99 ± 0.039 | 0.982 ± 0.054 | 1 ± 0.068 | 1 ± 0.066 | 0.896 ± 0.056 | 1.04 ± 0.078 | 0.944 ± 0.028 | 1.02 ± 0.049 | 0.991 ± 0.02 | 0.851 ± 0.097 | 0.5 ± 0.16 | 0.989 ± 0.06 | 1.01 ± 0.054 | 1 ± 0.032 | 0.929 ± 0.041 | 0.822 ± 0.073 | 0.63 ± 0.21 | 0.994 ± 0.015 | 0.999 ± 0.026 | 1.04 ± 0.15 | 1.06 ± 0.06 | 0.61 ± 0.1 | 0.254 ± 0.26 |

Reference: the supplement of paper PMC5662764
